# Assay results as given in patent US7267815B2, “Methods and reagents for the enhancement of virus transduction in the bladder epithelium” (priority 2002, dated 2007).
# Key:
# [1] = tested on: mice bladder urothelium; test: Adenovirus formulated with different concentrations of Dodecyl-β-D-Maltoside, infectivity of bladder urothelium; type: in vivo, Balb/c Mouse; conditions: for gene expression in bladder: 20 min. instillation
# Protocol: • Species: Female Balb/c Mouse (Taconic Laboratory)-2/group • Study Design: To test the effect of formulating Ad-βgal virus with different concentrations of Dodecyl-β-D-Maltoside and the resultant infection of mice bladder urothelium • Dose/Route (Viral Particles #/dose):
# An equal volume of 2× DDM and 2× Ad.CMV.LacZ was mixed together immediately before instillation into the bladder. […] But with 45 min. instillation, all animals with 0.05%-0.2% DDM with Ad-βgal virus had 100% gene expression in mice bladder.
# [2] = tested on: adenovirus; test: Study #3: compatibility of adenovirus with selected enhancers (plaque assay); type: physicochemical
# Protocol: For this study, each sample was incubated at 37° C. or 25° C. before the plaque assay started.
# [3] = tested on: bladder epithelium; test: Transduction efficacy of exemplary pretreatment agents (summary Table 7); type: in vivo, mouse; conditions: pretreatment agent
# [4] = tested on: bladder; test: Histopathology of bladders after chemical agent pretreatment (pathologists report); type: in vivo, mouse (BALB/c)
# Text: Bladders fixed in whole organ fixative were sectioned and stained with hematoxylin-eosin for histologic examination.
# [5] = tested on: mice bladder urothelium; test: DDM from two suppliers as pretreatment agent prior to adenovirus infection; type: in vivo, Balb/c Mouse; conditions: two different lots of DDM, pretreatment QQ5 minQ, 1×10^10 vp/dose for 15 min
# Text: Rat bladders infected with 4×10^10 vp adenovirus achieved >90% Ad-βgal gene expression levels whereas rat bladders infected with 4×10^9 vp adenovirus had Ad-βgal gene expression levels range from 30% to 50%. […] Efficacy of Dodecyl-β-D-Maltoside as a Pretreatment Agent Prior to Adenovirus Infection of Mice Bladder Urothelium • Species: Female Balb/c Mouse (Taconic Laboratory)—2/group • Study Design: To test DDM from two different suppliers as pretreatment agents to enhance the adenovirus infection of mice bladder urothelium in a large group of animals. • Dose/Route:
# In each case, >90% Ad-βgal expression was achieved. Therefore, DDM from either manufacturer is a good candidate for a chemical enhancer for adenovirus infection in mice bladder. Efficacy of Dodecyl-β-D-Maltoside as Chemical Enhancer Prior to Adenovirus Infection of SW780+ Luc Orthotopic Bladder Tumor Model in Mice • Species: Female NCR nu/nu Mouse (Taconic Laboratory)-2/group • Study Design: To show DDM pretreatments enhance Ad.Lac Z infectivity in mice bladder urothelium. To further confirm the enhancer effect on orthotopic tumors, two mice bearing orthotopic SW780 bladder tumors were pretreated with or without DDM (QQ5 minQ) followed by 15 min Ad.Lac Z instillation. The Ad.Lac Z gene expression levels were checked in these tumor cells 4 days post Ad.Lac Z infection. • Dose/Route: […]
# [6] = tested on: bladder epithelium; test: Effect of chemical agent pretreatment on adenovirus-mediated gene transfer and expression (Ad-βgal, X-gal staining); type: in vivo, mouse (BALB/c)
# Protocol: 152 female BALB/c mice were used this study.
# The route of administration of the chemical agent and virus was intravesical.
# 3. Based on the reagent being tested, bladder pretreatment was performed as follows:
# Poloxomer 407 procedure: Washed 2 times with 100 μl each. Retained the 3rd wash for 5 min and gave one additional wash. Performed 3 times PBS wash prior to virus instillation.
# Poloxomer 188 procedure: Washed 2 times with 100 μl each. Retained the 3rd wash for 5 minutes and gave one additional wash. Performed 3 times PBS wash prior to virus instillation.
# Lipofectamine 2000 procedure: Added 5 μl of stock Lipofectamine (1 mg/ml) to 195 μl of PBS-10% glycerol. Mixed with an equal volume of Ad-βgal virus and incubated for 15 minutes. Administered 100 μl of the mixture intravesically and retained in the bladder for 30 minutes.
# Benzyl Alcohol procedure: Washed 2 times with 100 μl each. Retained the 3rd wash for 15 minutes and then gave one additional wash. Performed 3 times PBS wash prior to virus instillation.
# Performed 3 times PBS wash prior to virus instillation.
# Polidocanol procedure: Washed 2 times with 100 μl each. Retained the 3rd wash for 5 min and then gave one additional wash. Performed 3 times PBS wash prior to virus instillation.
# DC-Cho procedure: Washed 2 times with 100 μl each. Retained the 3rd wash for 5 min and then gave one additional wash. Performed 3 times PBS wash prior to virus instillation.
# 0.4% HPMC 2910 procedure: No pretreatment. An equal volume of the virus was mixed with 0.8% solution of HPMC2910 and the mixture was instilled into the bladder for 30 minutes.
# 100 mg/ml Poly-Lysine procedure: No pretreatment. An equal volume of the virus was mixed with 100 mg/ml solution of Poly-Lysine and the mixture was instilled into the bladder for 30 minutes.
# 0.4% polyvinyl alcohol (PVA) procedure: No pretreatment. An equal volume of the virus was mixed with 0.8% solution of PVA and the mixture was instilled into the bladder for 30 minutes.
# n-dodecyl-β-D glucopyranoside procedure: Washed 2 times with 100 μl each. Retained the 3rd wash for 5 min and then gave one additional wash. Performed 3 times PBS wash prior to virus instillation.
# 0.4% PVP procedure: No pretreatment. An equal volume of the virus was mixed with 0.8% solution of PVP and the mixture was instilled into the bladder for 30 min.
# 0.1% cholesterol-cyclodextrin reagent procedure: No pretreatment. An equal volume of the virus was mixed with 0.2% solution of Cholesterol-Cyclodextrin and the mixture was instilled into the bladder for 30 minutes.
# n-dodecyl-β-D-maltoside procedure: Washed 2 times with 100 μl each. Retained the 3rd wash for 5 min and then gave one additional wash. Performed 3 times PBS wash prior to virus instillation.
# Sodium salt of dodecyl benzenesulfonic acid procedure: Washed 2 times with 100 μl each. Retained the 3rd wash for 5 min and then gave one additional wash. Performed 3 times PBS wash prior to virus instillation.
# 0.1% sodium dodecyl sulphate procedure: Wash 2 times with 100 μl each. Retained the 3rd wash for 5 min and then gave one additional wash. Performed 3 times PBS wash prior to virus instillation.
# 0.1% Tween 20 procedure: Washed 2 times with 100 μl each. Retained the 3rd wash for 5 min and then gave one additional wash. Performed 3 times PBS wash prior to virus instillation.
# 0.1% Triton® X-100 procedure: Washed 2 times with 100 μl each. Retained the 3rd wash for 5 min and then gave one additional wash. Perform 3 times PBS wash prior to virus instillation.
# 0.1% Forlan C-24 procedure: Washed 2 times with 100 μl each. Retained the 3rd wash for 5 min and then gave one additional wash. Performed 3 times PBS wash prior to virus instillation.
# 0.1% decyl-b-D-maltoside procedure: Washed 2 times with 100 μl each. Retained the 3rd wash for 5 min and then gave one additional wash. Performed 3 times PBS wash prior to virus instillation.
# 0.1% 6-cyclohexylhexyl-b-D-maltoside procedure: Washed 2 times with 100 μl each. […]
# [7] = 0.02% pre-treatment for 5 minutes
# [8] = 0.05% pre-treatment for 5 minutes
# [9] = 0.2% pre-treatment for 5 minutes
structure (smiles),measurement,setting,value
"CCCCCCCCCCCCO[C@@H]1O[C@H](CO)[C@@H](O[C@H]2O[C@H](CO)[C@@H](O)[C@H](O)[C@H]2O)[C@H](O)[C@H]1O [n-dodecyl β-D-maltoside, n-dodecyl-β-D-maltoside]",gene expression in bladder,[1]; 0.05% DDM formulated with Ad-βgal virus,about 40%
same,gene expression in mice bladder,"[1]; 0.05%-0.2% DDM with Ad-βgal virus, 45 min. instillation",100%
same,gene expression in bladder,[1]; 0.1% DDM formulated with Ad-βgal virus,about 80%
same,gene transduction (in words),[1]; 10 min. virus instillation after DDM pretreatment,gene transduction could be achieved
same,transduction rate (in words),"[1]; DDM formulated with virus, 10 min. instillation",did not achieve an acceptable transduction rate
same,Average pfu/mL,"[2]; 25° C., 2 hours",1.32E+10 pfu/mL
same,Ratio vp/pfu,"[2]; 25° C., 2 hours",16 vp/pfu
same,Average pfu/mL,"[2]; 37° C., 1 hour",1.36E+10 pfu/mL
same,Ratio vp/pfu,"[2]; 37° C., 1 hour",16 vp/pfu
same,compatibility with the adenovirus (in words),[2]; under the experimental conditions of Table 5,compatible with the adenovirus
same,Transduction Efficacy,[3],++++ (“++++” means >75% transduction efficacy)
same,pathologists report,[4]; [7],no significant lesions
same,pathologists report,[4]; [8],no significant lesions
same,pathologists report,[4]; [9],"erosions, focal ulcer, moderate submucosal edema with mucosal compromise"
same,Ad-βgal expression,[5],> 90%
same,response class (level of transduction),[6],strongest response
same,transduction of the urothelium,[6]; [7],50-80%
same,transduction of the urothelium,[6]; [8],> 90%
same,transduction of the urothelium,[6]; [9],> 90%
same,effect on transduction (in words),[6]; bladder pretreatment followed by Ad-LacZ,increased transduction significantly
